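Interpolation was linear, between the two tested concentrations surrounding the appropriate level; five concentrations were tested over 48 hours in 96-well plates. The concentration for 50% growth inhibition is given as GI50.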 The source made the active and inactive calls. Cut-off read from the data, not from the text of the source: active = GI50 up to about 1.1 µM and inactive = higher.
Columns and labels:
Experiment in all cases: growth of human tumour cells (NCI), 48 h
OVCAR-4 = system: OVCAR-4
HT-29 = system: HT-29
MDA-MB-231 = system: MDA-MB-231
NCI-H522 = system: NCI-H522
UACC-257 = system: UACC-257
SK-MEL-5 = system: SK-MEL-5
ACHN = system: ACHN
SNB-19 = system: SNB-19
RXF 393 = system: RXF 393
MDA-MB-435 = system: MDA-MB-435
NCI/ADR-RES = system: NCI/ADR-RES
A498 = system: A498
NCI-H23 = system: NCI-H23
SF-295 = system: SF-295
MOLT-4 = system: MOLT-4
HCT-15 = system: HCT-15
SF-539 = system: SF-539
KM12 = system: KM12
HOP-92 = system: HOP-92
Hs-578T = system: Hs-578T
IGROV-1 = system: IGROV-1
Malme-3M = system: Malme-3M
OVCAR-5 = system: OVCAR-5
COLO 205 = system: COLO 205
DU-145 = system: DU-145
786-0 = system: 786-0
MDA-N = system: MDA-N
SN12C = system: SN12C
SNB-75 = system: SNB-75
SK-OV-3 = system: SK-OV-3
PC-3 = system: PC-3
SW-620 = system: SW-620
UACC-62 = system: UACC-62
NCI-H460 = system: NCI-H460
A549 = system: A549
T47D = system: T47D
K562 = system: K562
RPMI-8226 = system: RPMI-8226
NCI-H226 = system: NCI-H226
HOP-62 = system: HOP-62
MCF7 = system: MCF7
HL-60 = system: HL-60
TK-10 = system: TK-10
HCC 2998 = system: HCC 2998
CCRF-CEM = system: CCRF-CEM
SR = system: SR
SF-268 = system: SF-268
EKVX = system: EKVX
M14 = system: M14
UO-31 = system: UO-31
SK-MEL-28 = system: SK-MEL-28
SK-MEL-2 = system: SK-MEL-2
OVCAR-3 = system: OVCAR-3
HCT-116 = system: HCT-116
CAKI-1 = system: CAKI-1
OVCAR-8 = system: OVCAR-8
U-251 = system: U-251
LOX IMVI = system: LOX IMVI

CN(C)/C=N\c1c(Br)cc(Br)c2nonc12
GI50 (OVCAR-4): > 100 µM (inactive)
GI50 (HT-29): > 100 µM (inactive)
GI50 (MDA-MB-231): > 100 µM (inactive)
GI50 (NCI-H522): > 100 µM (inactive)
GI50 (UACC-257): > 100 µM (inactive)
GI50 (SK-MEL-5): > 100 µM (inactive)
GI50 (ACHN): > 100 µM (inactive)
GI50 (SNB-19): > 100 µM (inactive)
GI50 (RXF 393): > 100 µM (inactive)
GI50 (MDA-MB-435): > 100 µM (inactive)
GI50 (NCI/ADR-RES): > 100 µM (inactive)
GI50 (A498): > 100 µM (inactive)
GI50 (NCI-H23): > 100 µM (inactive)
GI50 (SF-295): > 100 µM (inactive)
GI50 (MOLT-4): > 100 µM (inactive)
GI50 (HCT-15): > 100 µM
GI50 (SF-539): > 100 µM (inactive)
GI50 (KM12): > 100 µM (inactive)
GI50 (HOP-92): 85.7 µM (inactive)
GI50 (Hs-578T): 66.4 µM (inactive)
GI50 (IGROV-1): > 100 µM (inactive)
GI50 (Malme-3M): > 100 µM (inactive)
GI50 (OVCAR-5): > 100 µM (inactive)
GI50 (COLO 205): > 100 µM (inactive)
GI50 (DU-145): > 100 µM (inactive)
GI50 (786-0): > 100 µM (inactive)
GI50 (MDA-N): > 100 µM (inactive)
GI50 (SN12C): > 100 µM (inactive)
GI50 (SNB-75): 44.3 µM (inactive)
GI50 (SK-OV-3): > 100 µM (inactive)
GI50 (PC-3): > 100 µM (inactive)
GI50 (SW-620): > 100 µM (inactive)
GI50 (UACC-62): > 100 µM (inactive)
GI50 (NCI-H460): > 100 µM (inactive)
GI50 (A549): > 100 µM (inactive)
GI50 (T47D): > 100 µM (inactive)
GI50 (K562): > 100 µM (inactive)
GI50 (RPMI-8226): > 100 µM (inactive)
GI50 (NCI-H226): > 100 µM (inactive)
GI50 (HOP-62): > 100 µM (inactive)
GI50 (MCF7): > 100 µM (inactive)
GI50 (HL-60): > 100 µM (inactive)
GI50 (TK-10): > 100 µM (inactive)
GI50 (HCC 2998): > 100 µM (inactive)
GI50 (CCRF-CEM): > 100 µM (inactive)
GI50 (SR): > 100 µM (inactive)
GI50 (SF-268): > 100 µM (inactive)
GI50 (EKVX): > 100 µM (inactive)
GI50 (M14): > 100 µM (inactive)
GI50 (UO-31): > 100 µM (inactive)
GI50 (SK-MEL-28): > 100 µM (inactive)
GI50 (SK-MEL-2): > 100 µM (inactive)
GI50 (OVCAR-3): > 100 µM (inactive)
GI50 (HCT-116): > 100 µM (inactive)
GI50 (CAKI-1): > 100 µM (inactive)
GI50 (OVCAR-8): > 100 µM (inactive)

CC1(C)N=c2c(ncn2Cc2ccccc2)=C(C(N)=O)N1
GI50 (OVCAR-4): > 100 µM (inactive)
GI50 (HT-29): > 100 µM (inactive)
GI50 (MDA-MB-231): > 100 µM (inactive)
GI50 (NCI-H522): > 100 µM (inactive)
GI50 (UACC-257): > 100 µM (inactive)
GI50 (SK-MEL-5): > 100 µM (inactive)
GI50 (ACHN): 94.4 µM (inactive)
GI50 (SNB-19): > 100 µM (inactive)
GI50 (RXF 393): > 100 µM (inactive)
GI50 (MDA-MB-435): > 100 µM (inactive)
GI50 (NCI/ADR-RES): > 100 µM (inactive)
GI50 (A498): > 100 µM (inactive)
GI50 (NCI-H23): > 100 µM (inactive)
GI50 (SF-295): > 100 µM (inactive)
GI50 (HCT-15): > 100 µM
GI50 (SF-539): > 100 µM (inactive)
GI50 (KM12): > 100 µM (inactive)
GI50 (HOP-92): > 100 µM (inactive)
GI50 (Hs-578T): > 100 µM (inactive)
GI50 (IGROV-1): > 100 µM (inactive)
GI50 (Malme-3M): > 100 µM (inactive)
GI50 (OVCAR-5): > 100 µM (inactive)
GI50 (COLO 205): > 100 µM (inactive)
GI50 (DU-145): > 100 µM (inactive)
GI50 (786-0): > 100 µM (inactive)
GI50 (MDA-N): > 100 µM (inactive)
GI50 (SN12C): > 100 µM (inactive)
GI50 (U-251): > 100 µM (inactive)
GI50 (SNB-75): > 100 µM (inactive)
GI50 (SK-OV-3): > 100 µM (inactive)
GI50 (PC-3): > 100 µM (inactive)
GI50 (SW-620): > 100 µM (inactive)
GI50 (UACC-62): > 100 µM (inactive)
GI50 (NCI-H460): > 100 µM (inactive)
GI50 (A549): > 100 µM (inactive)
GI50 (T47D): > 100 µM (inactive)
GI50 (K562): > 100 µM (inactive)
GI50 (RPMI-8226): > 100 µM (inactive)
GI50 (NCI-H226): > 100 µM (inactive)
GI50 (HOP-62): > 100 µM (inactive)
GI50 (MCF7): > 100 µM (inactive)
GI50 (HL-60): > 100 µM (inactive)
GI50 (TK-10): > 100 µM (inactive)
GI50 (HCC 2998): > 100 µM (inactive)
GI50 (LOX IMVI): > 100 µM (inactive)
GI50 (CCRF-CEM): > 100 µM (inactive)
GI50 (SR): > 100 µM (inactive)
GI50 (SF-268): > 100 µM (inactive)
GI50 (EKVX): > 100 µM (inactive)
GI50 (M14): > 100 µM (inactive)
GI50 (SK-MEL-28): > 100 µM (inactive)
GI50 (SK-MEL-2): > 100 µM (inactive)
GI50 (OVCAR-3): > 100 µM (inactive)
GI50 (HCT-116): > 100 µM (inactive)
GI50 (CAKI-1): > 100 µM (inactive)
GI50 (OVCAR-8): > 100 µM (inactive)
